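Assay format: 96-well plates, 48-hour exposure. GI50: concentration for 50% inhibition of growth. At the TGI there is no net growth.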
Legend:
Assay in all cases: NCI anticancer screen, dose series, 48 h
[1] = test system: HCT-15 colon
[2] = test system: OVCAR-3 ovarian
[3] = test system: UACC-62 melanoma
[4] = test system: SR leukemia
[5] = test system: SW-620 colon
[6] = test system: MALME-3M melanoma
[7] = test system: OVCAR-5 ovarian
[8] = test system: EKVX NSCLC
[9] = test system: NCI-H460 lung
[10] = test system: MDA-MB-231 breast
[11] = test system: HS 578T breast
[12] = test system: DU-145 prostate
[13] = test system: CCRF-CEM leukemia
[14] = test system: LOX IMVI melanoma
[15] = test system: SK-MEL-28 melanoma
[16] = test system: SF-268 CNS
[17] = test system: RPMI-8226 leukemia
[18] = test system: CAKI-1 renal
[19] = test system: HT29 colon
[20] = test system: HCC-2998 colon
[21] = test system: UO-31 renal
[22] = test system: OVCAR-4 ovarian
[23] = test system: NCI/ADR-RES ovarian
[24] = test system: MOLT-4 leukemia
[25] = test system: 786-0 renal
[26] = test system: BT-549 breast
[27] = test system: SK-MEL-2 melanoma
[28] = test system: OVCAR-8 ovarian
[29] = test system: ACHN renal
[30] = test system: HL-60(TB) leukemia
[31] = test system: NCI-H522 lung
[32] = test system: COLO 205 colon
[33] = test system: M14 melanoma
[34] = test system: SNB-19 CNS
[35] = test system: A498 renal
[36] = test system: MCF7 breast
[37] = test system: SK-MEL-5 melanoma
[38] = test system: IGROV1 ovarian
[39] = test system: SNB-75 CNS
[40] = test system: SN12C renal
[41] = test system: PC-3 prostate
[42] = test system: HOP-62 NSCLC
[43] = test system: NCI-H226 lung
[44] = test system: SK-OV-3 ovarian
[45] = test system: RXF 393 renal
[46] = test system: K-562 leukemia
[47] = test system: UACC-257 melanoma
[48] = test system: NCI-H23 lung
[49] = test system: HCT-116 colon
[50] = test system: KM12 colon
[51] = test system: U251 CNS
[52] = test system: SF-539 CNS
[53] = test system: SF-295 CNS
[54] = test system: HOP-92 NSCLC
[55] = test system: MDA-MB-435
[56] = test system: MDA-MB-468 breast
[57] = test system: TK-10 renal
[58] = test system: T-47D breast
[59] = test system: A549 NSCLC

SMILES: CC1(C)CC[C@]2(C(=O)O)CC[C@]3(C)C(=CCC4[C@@]5(C)C[C@@H](O)[C@@H]6OC(c7ccccc7F)OC[C@@]6(C)C5CC[C@]43C)C2C1 (stereo partly drawn)
- GI50 [1]: 2.14 µM
- TGI [1]: 10.9 µM
- GI50 [2]: 3.23 µM
- TGI [2]: 13.1 µM
- GI50 [3]: 5.02 µM
- TGI [3]: 18 µM
- GI50 [4]: 3.29 µM
- TGI [4]: 21.9 µM
- GI50 [5]: 4.34 µM
- TGI [5]: 16.4 µM
- GI50 [6]: 5.08 µM
- TGI [6]: 17.9 µM
- GI50 [7]: 9.04 µM
- TGI [7]: 21.1 µM
- GI50 [8]: 3.16 µM
- TGI [8]: 14.5 µM
- GI50 [9]: 3.67 µM
- TGI [9]: 14.1 µM
- GI50 [10]: 9.03 µM
- TGI [10]: 21.3 µM
- GI50 [11]: 3.5 µM
- TGI [11]: 16.2 µM
- GI50 [12]: 6.27 µM
- TGI [12]: 19.8 µM
- GI50 [13]: 2.53 µM
- TGI [13]: 12.6 µM
- GI50 [14]: 3.49 µM
- TGI [14]: 14.2 µM
- GI50 [15]: 5.96 µM
- TGI [15]: 18.4 µM
- GI50 [16]: 5.04 µM
- TGI [16]: 20.7 µM
- GI50 [17]: 2.09 µM
- TGI [17]: 16.1 µM
- GI50 [18]: 3.8 µM
- TGI [18]: 14.4 µM
- GI50 [19]: 3.6 µM
- TGI [19]: 17.2 µM
- GI50 [20]: 3.49 µM
- TGI [20]: 14.1 µM
- GI50 [21]: 2.53 µM
- TGI [21]: 13.5 µM
- GI50 [22]: 5.19 µM
- TGI [22]: 19.4 µM
- GI50 [23]: 3.11 µM
- TGI [23]: 14.5 µM
- GI50 [24]: 2.09 µM
- TGI [24]: 12 µM
- GI50 [25]: 4.4 µM
- TGI [25]: 16 µM
- GI50 [26]: 2.84 µM
- TGI [26]: 11.3 µM
- GI50 [27]: 4.83 µM
- TGI [27]: 20 µM
- GI50 [28]: 3.41 µM
- TGI [28]: 15.6 µM
- GI50 [29]: 2.83 µM
- TGI [29]: 12.3 µM
- GI50 [30]: 2.67 µM
- TGI [30]: 9.82 µM
- GI50 [31]: 3.79 µM
- TGI [31]: 16.8 µM
- GI50 [32]: 2.73 µM
- TGI [32]: 8.52 µM
- GI50 [33]: 6.64 µM
- TGI [33]: 20.6 µM
- GI50 [34]: 3.75 µM
- TGI [34]: 15.8 µM
- GI50 [35]: 7.09 µM
- TGI [35]: 20.2 µM
- GI50 [36]: 3.42 µM
- TGI [36]: 14.6 µM
- GI50 [37]: 3.39 µM
- TGI [37]: 12.7 µM
- GI50 [38]: 5.54 µM
- TGI [38]: 18.1 µM
- GI50 [39]: 2.77 µM
- TGI [39]: 15 µM
- GI50 [40]: 3.57 µM
- TGI [40]: 15.7 µM
- GI50 [41]: 3.21 µM
- TGI [41]: 18.3 µM
- GI50 [42]: 3.61 µM
- TGI [42]: 15 µM
- GI50 [43]: 3.3 µM
- TGI [43]: 15.1 µM
- GI50 [44]: 4.51 µM
- TGI [44]: 17.4 µM
- GI50 [45]: 2.54 µM
- TGI [45]: 7.92 µM
- GI50 [46]: 2.66 µM
- TGI [46]: 84.2 µM
- GI50 [47]: 4.68 µM
- TGI [47]: 18.2 µM
- GI50 [48]: 3.97 µM
- TGI [48]: 15.7 µM
- GI50 [49]: 2.75 µM
- TGI [49]: 11.7 µM
- GI50 [50]: 3.7 µM
- TGI [50]: 15.1 µM
- GI50 [51]: 2.63 µM
- TGI [51]: 12.9 µM
- GI50 [52]: 3.65 µM
- TGI [52]: 13 µM
- GI50 [53]: 2.72 µM
- TGI [53]: 13 µM
- GI50 [54]: 2.65 µM
- TGI [54]: 11.9 µM
- GI50 [55]: 5.58 µM
- TGI [55]: 18.6 µM
- GI50 [56]: 3.37 µM
- TGI [56]: 14 µM
- GI50 [57]: 6.03 µM
- TGI [57]: 19.8 µM
- GI50 [58]: 6.64 µM
- TGI [58]: 24.7 µM
- GI50 [59]: 1.62 µM
- TGI [59]: 12.3 µM

— PubChem BioAssay (NCI)
